# Measurements published in patent US6514956B1, “Steroids, their preparation, pharmaceutical compositions thereof and uses of the compounds” (Shanghai Zhongxi Pharmaceutical Co., Ltd., priority 1999, dated 2003).
# Tests used:
# [1] = compared with mifepristone; reported in Human Reproduction 1994; cited from earlier work
# [2] = test system: pregnant rats, gravidity d7-9; experiment: Effect in stopping early pregnancy in rats; format: in vivo, Sprague-Dawley rats; details: for early pregnancy-stopping effect: rats of gravidity d7-9
# Procedure: Both sexes of Sprague-Dawley rats were placed into a cage and were allowed to copulate. […] Pregnant rats were randomly divided into 11 groups of 10. The control group was administrated with 0.5% CMC-Na solution. 6 Groups were administered with the compound of formula (VI) at doses of 2.0, 1.6, 1.28, 1.02, 0.82 and 0.66 mg/kg respecticely. 4 Groups were administered with Mifepristone at doses of 3.5, 2.45, 1.72 and 1.2 mg/kg respectively. The groups were administered endogastrically once a day (dose 2 ml/kg) for 3 consecutive days starting from gradivity d7. Animals in which ecolporrhagia was not detected and no signs of embryo implantation were found on dissection examination were considered as not pregnant and were not counted. The animals were sacrificed and laparotomized on gradivity d14 and the numbers of living embryos, dead embryos, implantation sites and yellow bodies in the uterus were counted. The number of the pregnant animals were counted and compared with that of the control group. ED50 of the two test drugs and its credibility interval was calculated with Bliss's method.
# [3] = test system: pregnant rats, gravidity d1-4; experiment: Anti-implantation effect in rat; format: in vivo, Sprague-Dawley rats; details: endogastric once a day for 4 days from gravidity d1, Bliss's method
# Procedure: Both sexes of Sprague-Dawley rats were placed into a cage and were allowed to copulate. […] Pregnant rats were randomly divided into 10 groups of 10. The control group was administered with 0.5% CMC-Na solution. 5 Groups were administered with the compound of formula (VI) and 4 groups were administered with Mifepristone. The groups were administered endogastrically once a day for 4 consecutive days starting from gradivity d1. The groups of animals were laparotomized on gradivity d14 and their uterus examined. The number of pregnant animals was counted. ED50 of the two drugs was calculated with Bliss's method.
# [4] = test system: MNU-induced rat mammary cancer; experiment: Inhibition of MNU-induced rat mammary cancer; format: in vivo, Sprague-Dawley rats; details: 30 days
# Procedure: Sprague-Dawley rats which are 5-7 weeks old and weighing 90-120 g were treated with an amount of carcinogenic chemical (MNU, commercially available) to induce rat mammary cancer and were divided into a group with cancer-induction alone, a group with mifepristone and two treatment groups with the compound of formula (VI). Each group except for the group with cancer-induction alone was endogastrically administrated with corresponding dose one time per day. After 30 days, the animals were sacrificed by decapitation. Indices such as body weight and tumor weight of each group of the animals were compared. The mean value of the groups was calculated and the rate of tumor growth inhibition derived. Rate of tumor inhibition %=(mean value of the group with cancer-induction alone−mean value of the treatment group)/mean value of the group with cancer-induction alone×100%
# [5] = test system: Human mammary cancer cells MCF-7; experiment: MTT test of killing tumor cells, MCF-7; format: cell-based; details: 4-6 days incubation
# Procedure: (§1) Human mammary cancer cells (MCF-7, T47D, commercially available) were prepared as 1×10^4/ml cell suspension in RPMI 1640 medium containing 10% calf serum and used to inoculate a 96-well plate at 100 μl/well. The plate was incubated for 24 hours in an incubator in 5% CO2 at 37° C. Two experimental groups each receiving compound of formula (VI) or Mifepristone (commercially available) (triplicate well/group each receiving 100 μl RPMI 1640 medium containing various concentrations of drug) and a control group (each well receiving RPMI medium containing equal volume of solvent) were incubated for 4-6 days in an incubator in 5% CO2 at 37° C. The cultural supernatant was discarded and 0.04% 100 μl MTT prepared with RPMI 1640 was added into each well. Incubation was carried out at 37° C. for 4 hours. The supernatant was discarded and 150 μl dimethyl sulfoxide was added into each well to dissolve Fomazan particles. After being shaked slightly, OD value was measured using a Model 550 Enzyme Labelling Equipment at a wavelength of 540 nm. The rate of inhibition of cells was graphed against the various concentrations of the drug to produce a dosage response curve from which 50% inhibiting concentration IC50 was derived.
# [6] = test system: Human mammary cancer cells T47D; experiment: MTT test of killing tumor cells, T47D; format: cell-based; details: 4-6 days incubation
# Procedure: as §1
# [7] = target: T1, progesterone receptor in rabbit endometrium (Oryctolagus cuniculus, UniProt P06186); details: cited from earlier work
# T1 construct: progesterone receptor in rabbit endometrium; host or cells: rabbit endometrium (tissue)
# T1 sequence (P06186 1-930): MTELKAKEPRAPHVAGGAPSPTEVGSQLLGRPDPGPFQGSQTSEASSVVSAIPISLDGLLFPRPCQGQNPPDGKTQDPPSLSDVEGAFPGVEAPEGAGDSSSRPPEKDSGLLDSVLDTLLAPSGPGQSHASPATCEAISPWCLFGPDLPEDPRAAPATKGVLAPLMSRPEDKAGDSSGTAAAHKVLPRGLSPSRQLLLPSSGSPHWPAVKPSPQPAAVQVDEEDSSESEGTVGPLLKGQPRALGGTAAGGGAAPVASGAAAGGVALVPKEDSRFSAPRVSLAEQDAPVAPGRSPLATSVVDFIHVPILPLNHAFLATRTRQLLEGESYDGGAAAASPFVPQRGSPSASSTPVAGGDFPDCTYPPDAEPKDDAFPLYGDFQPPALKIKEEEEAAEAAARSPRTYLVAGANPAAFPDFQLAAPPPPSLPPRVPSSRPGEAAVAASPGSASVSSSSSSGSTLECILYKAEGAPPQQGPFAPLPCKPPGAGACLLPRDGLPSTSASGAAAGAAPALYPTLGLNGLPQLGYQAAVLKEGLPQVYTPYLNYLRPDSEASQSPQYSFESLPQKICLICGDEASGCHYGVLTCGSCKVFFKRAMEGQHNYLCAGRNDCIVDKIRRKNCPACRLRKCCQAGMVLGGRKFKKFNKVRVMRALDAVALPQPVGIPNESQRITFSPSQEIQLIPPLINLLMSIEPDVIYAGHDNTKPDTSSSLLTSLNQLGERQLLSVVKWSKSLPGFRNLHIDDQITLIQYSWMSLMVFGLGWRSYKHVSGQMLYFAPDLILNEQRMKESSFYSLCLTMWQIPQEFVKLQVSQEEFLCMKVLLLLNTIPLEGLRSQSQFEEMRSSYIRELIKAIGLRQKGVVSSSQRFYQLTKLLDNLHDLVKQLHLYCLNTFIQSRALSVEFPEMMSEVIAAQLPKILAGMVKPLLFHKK
# [8] = reported in European Journal of Cancer 1999; cited from earlier work
structure (smiles),measurement,setting,value
"CN(C)c1ccc([C@H]2C[C@@]3(C)[C@@H](CC[C@@]3(O)/C=C\CO)[C@@H]3CCC4=CC(=O)CCC4=C32)cc1 [Lilopristone, 11β-[4-(N,N-dimethylamino)phenyl]-17α-[3-hydroxy-1(Z)-propenyl]-17β-hydroxy-4,9-estradiene-3-one]",clinical effect in stopping early pregnancy,[1],only equivalent to that of mifepristone
"CC#C[C@]1(O)CC[C@H]2[C@@H]3CCC4=CC(=O)CCC4=C3[C@@H](c3ccc(N(C)C)cc3)C[C@@]21C [Mifepristone, 11β-[4-(N,N-dimethylamino)phenyl]-17α-(1-propinyl)-17β-hydroxy-4,9-estradiene-3-one]",early pregnancy-stopping effect,[2]; 3.5 mg/kg,complete early pregnancy-stopping effect
same,ED50,"[2]; Rattus norvegicus, 72 h, rats, endogastric once a day for 3 days from gravidity d7, Bliss's method, credibility interval in brackets",2.12 ± 0.447 mg/kg
same,ED50,"[3]; Rattus norvegicus, 96 h",6.69 ± 1.55 mg/kg
same,Inhibition (%) of tumor growth,[4]; 40 mg/kg endogastrically once per day,72.1%
same,IC50,"[5]; Homo sapiens, MCF7, MCF-7 cells",10.8 ± 8.1 µM
same,IC50,[6]; Homo sapiens,11 ± 9.03 µM
same,affinity with progesterone receptor compared with progesterone,[7],five-fold higher than that of progesterone
"CN(C)c1ccc([C@H]2C[C@]3(C)[C@@H](CC[C@]3(O)CCCO)[C@@H]3CCC4=CC(=O)CCC4=C32)cc1 [Onapristone, 11β-[4-(N,N-dimethylamino)phenyl]-17α-hydroxy-17β-(3-hydroxypropyl)-13α-4,9-estradiene-3-one]",toxicity to human liver,[8],had toxicity to human liver
"CC#CC1(O)CCC2C3CCC4=CC(=O)CCC4=C3C(c3ccc(N(C)C4CCCCC4)cc3)CC21C (stereo not drawn) [compound of formula (VI), 11β-[4-(N-methyl-N-cyclohexylamino)phenyl]-17α-(1-propinyl)-17β-hydroxy-4,9-estradiene-3-one]",early pregnancy-stopping effect,[2]; 2 mg/kg/day,complete early pregnancy-stopping effect
same,"ED50, early pregnancy-stopping effect","[2]; rats, endogastric once a day for 3 days from gravidity d7, Bliss's method, credibility interval in brackets",1.1439 ± 0.1590 mg/kg
same,anti-implantation ED50,[3],2.3409 ± 0.6191 mg/kg
same,Inhibition (%) of tumor growth,[4]; 10 mg/kg endogastrically once per day,50.4%
same,Inhibition (%) of tumor growth,[4]; 20 mg/kg endogastrically once per day,89.3%
same,IC50,[5]; MCF-7 cells,5.5 ± 0.72 µM
same,IC50,[6],6.4 ± 3.15 µM
